Test results reported in patent publication US6630347B1, “Endothelial NOS transgenic animals and methods of use” (The General Hospital Corporation, priority 1996, dated 2003).
Where a name gives a salt, the structure may show the parent alone. Marks after values point to notes of the source that are not given here. One block for each compound: values may come before it.

What was measured:
aortic rings = experiment: Endothelium-dependent relaxation of aortic rings in response to acetylcholine; set-up: species or system mice
Text: The rings were pre-contracted with 10^−7 M norepinephrine and exposed to increasing concentrations of acetylcholine (ACh) from 10^−8 M to 3×10^−5 M. 2-3 segments were collected from each mouse, and five mice were used from the wild-type and eNOS mutant groups. Mean data from each animal were used. Respective tracings are shown. Acetylcholine concentrations are expressed in logM.

[1] = Cerebral infarct size 24 hrs after middle cerebral artery (MCA) occlusion; format: in vivo, mice
Text: Male and female wild-type (SV-129 and C57 Black/6, Taconic Farms, Germantown, N.Y.) and eNOS mutant mice weighing 20 to 26 g were housed under diurnal lighting conditions and allowed free access to food and water ad libitum.
Mice were anesthetized with 2% halothane for induction and maintained on 1% halothane in 70/30% nitrous oxide/oxygen by mask. The right femoral artery was cannulated with PE-10 polyethylene tubing for arterial blood pressure measurement (Gould, Oxnard, Calif.) and blood gas determination (Corning 178, Ciba Corning Diag., Medford, Mass.). Rectal temperature was maintained between 36.5-37.5° C. with a homeothermic blanket system (YSI, Yellow Springs, Ohio).
Focal cerebral ischemia was induced by occlusion of middle cerebral artery (MCA) using the intraluminal filament technique. […] Through a ventral midline incision, the right common and external arteries were isolated and ligated. A microvascular clip (Zen temporary clip, Ohwa Tsusho, Tokyo, Japan) was temporarily placed on the internal artery and the pterygopalatine artery. An 8-0 nylon monofilament (Ethicon, Somerville, N.J.) coated with silicone was introduced through a small incision in the common corotid artery and advanced 10 mm distal to the carotid bifurcation so as to occlude the MCA and posterior communicating artery. The wound was sutured and the animal returned to its cage and allowed free access to water and food.
Twenty-four hours later, animals were sacrificed with an overdoses of pentobarbital and the brains removed and sectioned coronally into five 2-mm slices in a mouse brain matrix. Slices were placed in 2% TTC solution, followed by 10% formalin overnight. […] The infarction area, outlined in white, was measured (Bioquant IV image analysis system) on the posterior surface of each section, and the infarction volume was calculated by summing the infarct volumes of sequential 2 mm thick sections. […]

[2] = Physiological data (blood gases, MABP) before MCA occlusion and after ischemia; format: in vivo, mice
Method: The right femoral artery was cannulated with PE-10 polyethylene tubing for arterial blood pressure measurement (Gould, Oxnard, Calif.) and blood gas determination (Corning 178, Ciba Corning Diag., Medford, Mass.). Rectal temperature was maintained between 36.5-37.5° C. with a homeothermic blanket system (YSI, Yellow Springs, Ohio). […] The investigator was blinded to the treatment group in this protocol.

[3] = eNOS mutant mice; 250 μg/ml in drinking water, daily dose about 750 μg; decrease from 102 mm Hg
Method: The effect of hypertension in vascular injury responses (both filament and cuff models) is measured by repeating the experiments after treating eNOS mutant mice with hydralazine to reduce their blood pressure to normotensive levels.

NOS binding sites = experiment: [3H]L-NG-nitro-arginine autoradiographic binding assay in brain sections; set-up: species or system mouse; conditions: for L-NA displaceable [3H]L-NA binding in the presence of 7-NI: 100 μM 7-NI; for L-NA displaceable [3H]L-NA binding in the presence of D-NA: 10 μM D-NA
Method: Mice and rats were sacrificed by decapitation under 2% halothane anesthesia (30% O2+70% N2O). The brains were rapidly removed, immediately frozen in powdered dry ice, and stored at −70° C. Twelve μm sagittal or coronal sections were cut in a cryostat-microtome at −18° C. (Leitz 1720, Leica, Deerfield, Ill., U.S.A.) and thaw-mounted onto gelatin-coated slides (1% gelatin and 0.1% KCr2O). Adjacent sections were stained with cresyl violet and hematoxylin eosin, and stored at −70° C.
The method for the autoradiographic visualization of NOS binding using [^3H]L-NG-Nitro-arginine ([^3H]L-NA) has been described previously. Rutherford et al., (1995). Prior to experiments, sections were brought to −20° C. and then to room temperature. Sections were preincubated for 15 min at room temperature in 50 mM Tris-HCl (pH 7.3) to remove the endogenous ligands and/or modulators, then incubated for 30 min at room temperature in 50 mM Tris-HCl buffer containing 10 μM CaCl2 and 25 nM N^G-nitro-L-[2,3,4,5-H]arginine hydrochloride ([^3H]L-NA, specific activity: 48-57 Ci/mmol, Amersham, Arlington Heights, Ill., U.S.A.). Unlabelled L-N^G-nitro-arginiine (L-NA, Sigma, St. Louis, Mo., U.S.A.), D-N^G-nitro-arginine (D-NA, RBI, Natick, Mass., U.S.A.) and 7-nitroindazole (7-NI, Cookson Chemicals Ltd., England) was added at concentrations of 10, 10, and 100 μM, respectively. The sections were then washed twice for 5 min in ice-cold buffer and rinsed for 10 sec in ice-cold distilled water to eliminate residual buffer. After drying with cold air, the slides were tightly apposed to ^3H-Hyperfilm (Amersham) together with tritiated polymer standards (Amersham) and exposed at −4° C. for 6 weeks.
Films were developed in Kodak D-19 and fixed in Kodak Rapid Fixer, according to the manufacturer's instructions. The optical density of the regions of interest was measured by a computer-assisted image analysis (System M4, Imaging Research, St. Catharines, Ontario, Canada). The relationship between optical density and radioactivity was examined with reference to the tritium standards (Amersham, [^3H]microscale) co-exposed with the tissue sections. […] The densities of NOS binding sites are expressed in fmol bound [^3H]L-NA/mg tissue using the [^3H]L-NA concentration of 25 nM.

[4] = Babbedge et al. (1993); cited from earlier work
[5] = Blood pressure responses to L-NA (femoral artery catheterization); format: in vivo, mice
Method: Mice were kept at normal temperature (37° C.), anesthetized with urethane ([…], intraperitoneal injection) or halothane inhalation, and ventilated using an SAR-830 mouse ventilator (CWE Instruments). Depth of anesthesia was adjusted to keep the blood pressure of animals unresponsive to tail-pinch with forceps. End-tidal CO2 was monitored with a microcapnometer and kept constant by adjustment of respiratory parameters. The right femoral artery was cannulated using stretched PE-10 polyethylene tubing (Clay Adams) for mean arterial blood pressure recordings using an ETH-400 transducer and a MacLab data acquisition system (ADI Instruments). For awake measurements, the femoral artery catheter was placed under halothane anesthesia and the wound was covered with 1% xylocane ointment to diminish discomfort. Recordings were made within one hour of the procedure. Data are expressed as means with standard deviation. Statistical evaluation was performed by t-test.
Mean arterial blood pressure (MABP) of urethane-anesthetized wild-type (solid line in FIG. 5) and eNOS mutant mice (dotted line in FIG. 5) were measured by femoral artery catheterization and recorded for 30 minutes of baseline before L-NA administration (arrows in FIG. 5). At time 0, 12 mg/kg of L-NA was given intraperitoneally. […] The blood pressure of eNOS mutant mice dropped from a baseline of 98 mm Hg to 66 mm Hg (n=5). […]

pial arterioles = experiment: Pial arteriole diameter during superfusion in closed cranial window; format: in vivo, mice
Text: The mouse head was fixed in a stereotaxic frame and the skull exposed by a longitudinal skin incision. A stainless steel cranial window ring (8.0 mm in inner diameter, 2.0 mm in height) containing three ports was imbedded into a loop of bone wax over the skull. Dental acrylic was then applied. A craniotomy (2×1.5 mm) was made in the left parietal bone within the ring of the window. After dura was opened and the brain surface superfused with artificial cerebrospinal fluid (aCSF), a cover glass was placed to close the window. The volume under the window was approximately 0.1 ml. The composition of aCSF was as follows (in mMol/L): […] The aCSF was superfused by an infusion pump (0.4 ml/min) via a PE-100 tubing connected to a window port. Intracranial pressure was maintained at 5-8 mm Hg. The temperature of aCSF within the windows was maintained at 36.5-37.0° C. Pial vessels were visualized through a cranial window by an intravital microscope (Leitz, Germany) equipped with a video camera ([…], Hamamatsu Photonics, Hamamatsu, Japan). The diameter of a single pial arteriole (20-30 μm) was continuously measured by a video width analyzer ([…], Hamamatsu, Japan) and recorded using the MacLab data acquisition and analysis system. After baseline stabilization, nitro-L-arginine or nitro-D-arginine solution (1 mM) was superfused into the window and the diameter of pial arteriole measured continuously 40 min thereafter.

[6] = Amygdaloid complex, nNOS mutant
[7] = Cerebellum (molecular layer), SV-129
[8] = Cerebellum (molecular layer), nNOS mutant
[9] = Hippocampal CA3 subfield, SV-129
[10] = Hippocampal CA3 subfield, nNOS mutant

SMILES: CC(=O)OCC[N+](C)(C)C [acetylcholine]
pre-addition tone present after acetylcholine (aortic rings; wild-type aortic segments pre-contracted with 10^-7 M norepinephrine, acetylcholine 3×10^-5 M): 60.3±14.6%

SMILES: NNc1nncc2ccccc12 [hydralazine, hydralazine hydrochloride]
change of infarct size ([1]; eNOS mutants made normotensive by hydralazine): did not change
infarct volume ([1]; protocol 1, eNOS mutant mice made normotensive by hydralazine 1 mg/kg ip 1 hr before and 5, 17 hrs after MCA occlusion, n=10): 48±7 % of hemisphere
MABP difference between groups after hydralazine administration ([2]; eNOS mutant mice given hydralazine vs wild-type mice): did not differ
MABP before ([2]; protocol 1, eNOS mutant, hydralazine, 10 min before MCA occlusion): 102 ± 6 mmHg
MABP after ([2]; protocol 1, eNOS mutant, hydralazine, 24 hrs after ischemia): 102 mmHg
mean arterial pressure after hydralazine [3]: 72 mm Hg

SMILES: N=C(N)NCCC[C@H](N)C(=O)O [L-arginine]
effect on the blood pressure responses to L-NA ([5]; 200 mg/kg, intraperitoneal): prevented

SMILES: NC(=N[N+](=O)[O-])NCCCC(N)C(=O)O [L-NA, L-nitroarginine]
acetylcholine-induced relaxation after L-NA treatment (aortic rings; wild-type vessel rings, 10^-4 M L-NA for 1 hour): abolished
change of lesion size after MCA occlusion ([1]; protocol 2, wild-type mice): did not change
change in MABP during superfusion (pial arterioles; 1 mM superfusion): no change
pial vessel diameter (pial arterioles; eNOS mutant mice, 1 mM superfusion for 40 min): increased
density of [3H]L-NA binding sites in the presence of L-NA (NOS binding sites; 10 μM, all brain regions of all mouse strains): very low

Second part, led by results:

[3H]L-NA binding in the presence of 7-NI (NOS binding sites; 100 μM, all regions measured, wild-type and eNOS mutant mice): significantly decreased
L-NA displaceable [3H]L-NA binding in the presence of 7-NI (NOS binding sites; Amygdaloid complex, C57black/6): 21 ± 4.8 fmol/mg tissue
L-NA displaceable [3H]L-NA binding in the presence of 7-NI (NOS binding sites; Amygdaloid complex, SV-129): 21 ± 2.1 fmol/mg tissue
L-NA displaceable [3H]L-NA binding in the presence of 7-NI (NOS binding sites; Amygdaloid complex, eNOS mutant): 21 ± 2.9 fmol/mg tissue
L-NA displaceable [3H]L-NA binding in the presence of 7-NI (NOS binding sites; [6]): 23 ± 2.5 fmol/mg tissue
L-NA displaceable [3H]L-NA binding in the presence of 7-NI (NOS binding sites; Cerebellum (molecular layer), C57black/6): 23 ± 5.4 fmol/mg tissue
L-NA displaceable [3H]L-NA binding in the presence of 7-NI (NOS binding sites; [7]): 18 ± 1.3 fmol/mg tissue
L-NA displaceable [3H]L-NA binding in the presence of 7-NI (NOS binding sites; Cerebellum (molecular layer), eNOS mutant): 20 ± 2.2 fmol/mg tissue
L-NA displaceable [3H]L-NA binding in the presence of 7-NI (NOS binding sites; [8]): 24 ± 1.0 fmol/mg tissue
L-NA displaceable [3H]L-NA binding in the presence of 7-NI (NOS binding sites; Dentate gyrus, C57black/6): 22 ± 4.6 fmol/mg tissue
L-NA displaceable [3H]L-NA binding in the presence of 7-NI (NOS binding sites; Dentate gyrus, SV-129): 18 ± 0.7 fmol/mg tissue
L-NA displaceable [3H]L-NA binding in the presence of 7-NI (NOS binding sites; Dentate gyrus, eNOS mutant): 20 ± 2.7 fmol/mg tissue
L-NA displaceable [3H]L-NA binding in the presence of 7-NI (NOS binding sites; Dentate gyrus, nNOS mutant): 22 ± 1.7 fmol/mg tissue
L-NA displaceable [3H]L-NA binding in the presence of 7-NI (NOS binding sites; Hippocampal CA3 subfield, C57black/6): 22 ± 4.7 fmol/mg tissue
L-NA displaceable [3H]L-NA binding in the presence of 7-NI (NOS binding sites; [9]): 18 ± 1.8 fmol/mg tissue
L-NA displaceable [3H]L-NA binding in the presence of 7-NI (NOS binding sites; Hippocampal CA3 subfield, eNOS mutant): 21 ± 1.8 fmol/mg tissue
L-NA displaceable [3H]L-NA binding in the presence of 7-NI (NOS binding sites; [10]): 23 ± 2.3 fmol/mg tissue
L-NA displaceable [3H]L-NA binding in the presence of 7-NI (NOS binding sites; Olfactory bulb (glanular layer), C57black/6): 28 ± 4.1 fmol/mg tissue
L-NA displaceable [3H]L-NA binding in the presence of 7-NI (NOS binding sites; Olfactory bulb (glanular layer), SV-129): 17 ± 0.7 fmol/mg tissue
L-NA displaceable [3H]L-NA binding in the presence of 7-NI (NOS binding sites; Olfactory bulb (glanular layer), nNOS mutant): 30 ± 2.7 fmol/mg tissue
SMILES: O=[N+]([O-])c1cccc2cn[nH]c12 [7-NI, 7-nitroindazole]
effect on blood pressure [4]: does not increase blood pressure

L-NA displaceable [3H]L-NA binding in the presence of D-NA (NOS binding sites; Amygdaloid complex, SV-129): 64 ± 7.6 fmol/mg tissue
L-NA displaceable [3H]L-NA binding in the presence of D-NA (NOS binding sites; [6]): 3 ± 1.7*^,# fmol/mg tissue
L-NA displaceable [3H]L-NA binding in the presence of D-NA (NOS binding sites; [7]): 59 ± 6.7 fmol/mg tissue
L-NA displaceable [3H]L-NA binding in the presence of D-NA (NOS binding sites; [8]): 0 ± 3.6*^,# fmol/mg tissue
L-NA displaceable [3H]L-NA binding in the presence of D-NA (NOS binding sites; Dentate gyrus, SV-129): 43 ± 4.8 fmol/mg tissue
L-NA displaceable [3H]L-NA binding in the presence of D-NA (NOS binding sites; Dentate gyrus, nNOS mutant): 2 ± 1.9*^,# fmol/mg tissue
L-NA displaceable [3H]L-NA binding in the presence of D-NA (NOS binding sites; [9]): 66 ± 5.9 fmol/mg tissue
L-NA displaceable [3H]L-NA binding in the presence of D-NA (NOS binding sites; [10]): 3 ± 1.9*^,# fmol/mg tissue
L-NA displaceable [3H]L-NA binding in the presence of D-NA (NOS binding sites; Olfactory bulb (granular layer), SV-129): 92 ± 10.8 fmol/mg tissue
L-NA displaceable [3H]L-NA binding in the presence of D-NA (NOS binding sites; Olfactory bulb (granular layer), nNOS mutant): 5 ± 3.0*^,# fmol/mg tissue
SMILES: NC(=N[N+](=O)[O-])NCCCC(N)C(=O)O [D-NA, D-N^G-nitro-arginine]
blood pressure effects as seen with L-NA ([5]; wild-type and eNOS mutant mice, 12 mg/kg): not seen
change in pial diameter (pial arterioles; eNOS mutant mice, 1 mM superfusion): No change
